Assay results taken from patent US7815907B2, “Antibodies to insulin-like growth factor I receptor” (Amgen Fremont Inc., priority 2001, dated 2010).

Experiments:
IGF-IR from the marmoset = assay: Species crossreactivity by immunoprecipitation/Western blot; type: binding; settings: immunoprecipitation, antibody 1 μg/ml
Protocol: (§1) To perform immunoprecipitation experiments, we plated cells in DMEM high glucose media supplemented with L-glutamine (0.29 mg/ml), 10% heat-inactivated FBS, and 500 μg/ml each of geneticin, penicillin and streptomycin to 50% confluence in T25 flasks. We then added 100 μl of an antibody of the invention in Hank's buffered saline solution (HBSS; Gibco BRL) at a concentration of 1 μg/ml. We incubated the plates for 30 minutes at 37° C. in an incubator and then stimulated the cells with IGF-I at 100 ng/ml for 10 minutes at room temperature. We lysed the cells in RIPA buffer (Harlow and Lane, supra) and immunoprecipitated IGF-IR with 2 μg of pan-specific SC-713 anti-IGF-IR antibody (Santa Cruz) plus protein A agarose beads for 1 hour at 4° C. We pelleted the beads and wash three times with PBS/T (PBS+0.1% Tween-20) and then boiled the beads in 40 μl Laemmli buffer containing 5% βME.
(§2) The samples prepared as described above were then analyzed by Western blot. We loaded 12 μl of each sample per lane on 4-10% gradient Novex™ gels run with 1×MES buffer (Novex™). Gels were run at 150V for 1 hour or at 200V for approximately 30 minutes. We then transferred the gel to a membrane in Novex™ transfer buffer with 10% methanol either overnight at 100 mA or for 1-1.5 hours at 250 mA. We then allowed the membrane to dry completely and blocked at room temperature with TBS (Tris-buffered saline pH 8.0) containing Superblock (Pierce Chemical Co.). We added the IGF-IR blotting antibody SC713 (Santa Cruz) to detect immunoprecipitated IGF-IR.

Rhesus IGF-IR = assay: as above; type: binding; settings: immunoprecipitation, antibody 1 μg/ml
Protocol: as §1, §2

canine IGF-IR = assay: as above; type: binding; settings: immunoprecipitation, antibody 1 μg/ml
Protocol: as §1, §2

guinea pig IGF-IR = assay: as above; type: binding; settings: immunoprecipitation, antibody 1 μg/ml
Protocol: as §1, §2

rabbit IGF-IR = assay: as above; type: binding; settings: immunoprecipitation, antibody 1 μg/ml
Protocol: as §1, §2

Colo 205 tumors = assay: Growth inhibition of colorectal cell tumors; type: in vivo, nude mice
Protocol: Tumors were induced in nude mice as described in Example IX except that Colo 205 cells (ATCC CCL 222) were used. Colo 205 cells are human colorectal adenocarcinoma cells. Mice with established subcutaneous tumors of approximately 250 mm^3 were treated with various amounts of 2.13.2 antibody (i.p.) or with 100 mg/kg […] (5-FU, i.v.), either as single agents or in combination, as described in Example IX. […] Mice with established Colo 205 tumors were treated on days 1, 8, 15 and 22 with 500 μg 2.13.2 (i.p.), 100 mg/kg 5-FU (i.v.) or a combination thereof.

## 2.13.2: human IgG2κ monoclonal antibody specific for IGF-IR from hybridoma 2.13.2 (ATCC PTA-2788)
IGF-IR from the marmoset
  binding to marmoset IGF-IR: not
Rhesus IGF-IR
  binding to Rhesus IGF-IR: able to bind
Canine IGF-IR
  binding to canine IGF-IR: not
Guinea pig IGF-IR
  binding to guinea pig IGF-IR: not
Rabbit IGF-IR
  binding to rabbit IGF-IR: not
Colo 205 tumors; 500 μg i.p. on days 1, 8, 15 and 22
  Colo 205 tumor growth: inhibits human colorectal cancer cell growth
Colo 205 tumors; 500 μg i.p. on days 1, 8, 15 and 22 with 100 mg/kg 5-FU i.v.
  effect on effectiveness of 5-FU: enhances the effectiveness of 5-FU
Colo 205 tumors; antibody given once with 100 mg/kg 5-FU i.v.
  effect on effectiveness of 5-FU: enhances the effectiveness of 5-FU
Colo 205 tumors; antibody i.p. given once, single agent
  Colo 205 tumor growth: inhibits human colorectal cancer cell growth
